Test results from paper PMC5046141, “Discovery of Isoquinolinoquinazolinones as a Novel Class of Potent PPARγ Antagonists with Anti-adipogenic Effects” (Scientific Reports, 2016).

Biological target: T1, C285G mutant PPARγ2 (Mus musculus, UniProt P37238, C313G)
T1 construct: expressed in transfected cells; host or cells: 3T3-L1, pCS4 CMV vector
T1 sequence (P37238 1-505 C313G): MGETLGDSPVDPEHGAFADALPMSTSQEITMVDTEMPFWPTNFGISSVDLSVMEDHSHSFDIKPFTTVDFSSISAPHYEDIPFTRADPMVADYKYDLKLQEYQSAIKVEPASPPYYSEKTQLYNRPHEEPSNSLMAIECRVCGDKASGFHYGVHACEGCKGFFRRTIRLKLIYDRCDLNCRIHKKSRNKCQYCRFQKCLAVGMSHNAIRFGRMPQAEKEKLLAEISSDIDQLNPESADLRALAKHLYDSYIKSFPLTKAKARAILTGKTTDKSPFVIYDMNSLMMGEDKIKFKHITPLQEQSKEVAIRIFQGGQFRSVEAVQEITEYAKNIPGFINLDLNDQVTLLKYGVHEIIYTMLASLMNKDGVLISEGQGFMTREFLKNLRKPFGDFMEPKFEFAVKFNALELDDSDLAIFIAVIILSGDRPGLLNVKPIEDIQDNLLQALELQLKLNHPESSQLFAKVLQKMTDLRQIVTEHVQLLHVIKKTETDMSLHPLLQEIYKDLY
T1 sequence (P28700 1-467 partner): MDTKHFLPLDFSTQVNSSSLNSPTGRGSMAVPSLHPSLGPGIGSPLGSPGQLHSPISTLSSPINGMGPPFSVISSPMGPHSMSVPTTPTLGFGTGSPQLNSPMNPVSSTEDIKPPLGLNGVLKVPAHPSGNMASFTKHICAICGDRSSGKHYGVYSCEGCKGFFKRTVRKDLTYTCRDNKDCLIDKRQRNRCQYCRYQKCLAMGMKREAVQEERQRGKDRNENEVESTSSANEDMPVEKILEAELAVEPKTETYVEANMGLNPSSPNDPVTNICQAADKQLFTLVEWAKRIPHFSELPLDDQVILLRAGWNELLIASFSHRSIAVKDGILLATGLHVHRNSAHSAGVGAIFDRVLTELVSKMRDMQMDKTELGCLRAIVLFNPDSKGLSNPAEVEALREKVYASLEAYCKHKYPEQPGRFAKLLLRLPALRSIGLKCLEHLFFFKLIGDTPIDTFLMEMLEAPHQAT
Assay: PPRE-Luc reporter assay with C285G mutant PPARγ2 in 3T3-L1 cells
Format: cell-based
Conditions: 5 μM, 12 h
Method: To investigate the contribution site on the PPARγ2 to the interaction with 8o, we generated mutant forms of the PPARγ2 (Fig. 5). […] Thus, we tested Cys-to-Gly (Cys285), Arg-to-Gly (Arg288) substitution mutants of PPARγ2. […] The results indicated 8o has interaction with both Cys285 and Arg288, which are in agreement with the docking study.
Figure 5 Mutational study. Residues Cys285 and Arg288 of PPARγ are important for 8o function. The transcriptional activity was determined in 3T3-L1 cells transiently co-transfected with PPRE-driven luciferase reporter gene (PPRE-Luc) and PPARγ2 (WT) or (C285G, R288G) expression vector. After 24 h of transfection, the cells were cultured with 5 μM GW9662 and 5 μM 8o respectively for 12 h. Luciferase activity was measured after 36 h. Error bars mean ± SD of at least three experiments. ^*P < 0.05, ^**P < 0.01.
For plasmids expressing PPARγ2, full length PPARγ2 (mouse, 1518 bp: NCBI Reference Sequence: NP_035276.2) was subcloned into CMV promoter-derived mammalian expression vector (pCS4). […]
3T3-L1 cells were transfected for indicated combinations of expression plasmids along with a luciferase reporter plasmid (PPRE-Luc). […] Luciferase activities were measured using a luciferase reporter assay kit (Promega, Madison, WI, USA). […]

Row | Compound | effect of Cys285 to Gly substitution on the compound's inhibition of PPARγ2 activity
1 | COc1cc2cc3n(c(=O)c2cc1OC)CNc1cc(Cl)ccc1-3 [Compound 8o, 3-Chloro-10,11-dimethoxy-5H-isoquinolino[2,3-c]quinazolin-8(6H)-one] | abolished the inhibitory effect
2 | O=C(Nc1ccccc1)c1cc([N+](=O)[O-])ccc1Cl [GW9662, reference compound] | abolished the inhibitory effect
